From patent publication US20260265771A1, “METHODS OF INCREASING THE REGENERATION EFFICIENCY IN PLANTS” (Institute of Genetics and Developmental Biology Chinese …, priority 2022, published 2026)
Several values for one entry are separate records, joined by “and”; a condition that tells them apart may be missing. Equal values may be shown once. Entries after “also recorded” stand apart in the source; their conditions may differ.

What was measured:
cucumber leaf explants = test: Shoot regeneration of cucumber leaf explants; assay type: cell-based; details: 10 nM CsREF1 vs untreated control explants, 21 d
Method: FIG. 46—Leaf explants were cultured on medium containing indicated concentrations of CsREF1. Shoot regeneration was scored at 21 d after incubation. The shoot regenerative capacity was represented by the number of regenerated shoots per explant. Data are mean±SD of three independent experiments. Bars show mean±SD. ***P<0.001, **P<0.01, *P<0.05 (Student's t-test).
Leaf explants were cultured on a medium containing 10 nM CsREF1.

[1] = system: pepper cotyledon explants; test: Callus formation of pepper cotyledon explants on CIM; assay type: cell-based, Capsicum annuum; details: CIM, 0, 1 and 10 nM CaREF1
Method: Cotyledon explants were cultured on callus-inducing medium (CIM) containing indicated concentrations of CaREF1. (a) photos of cotelydon explants grown with 0 nM, 1 nM and 10 nM CaREF1. (b) relative callus area of cotelydon explants grown with 0 nM, 1 nM and 10 nM CaREF1. Box plots represent the distribution of projected callus area. The projected area of callus was quantified by Image J. Individual values (black dots) are shown and error bars represent SD from three independent experiments. **P<0.01, *P<0.05 (Student's t-test).

pepper roots = test: Root hair formation in pepper; assay type: in vivo, Capsicum annuum; details: 0, 10 and 100 nM CaREF1
From the text: The pepper SIPEP (REF1) orthologue (CaREF1) was investigated to establish whether CaREF1 can increase the regenerative capacity of pepper (Capsicum annuum).

[2] = system: Williams 82 soybean cultivar; test: Transformation efficiency of soybean (reporter gene A); assay type: cell-based
Method: By “transformation efficiency” is meant the capacity of an organism to take up and incorporate exogenous DNA such as plasmids during transformation. Transformation efficiency is calculated by dividing the number of transformants by the total number of organisms subjected to the transformation process and multiplying this by 100 to obtain a percentage.
The soybean gene A was transformed into the Williams 82 soybean cultivar and treated with 100 nM GmREF1 or a control. Gene A is a transcription factor gene which is used as a reporter for transformation efficiency. […]

soybean explants = test: Shoot regeneration of soybean explants; assay type: cell-based, Glycine max
Method: The relative regeneration capacity was represented by the relative frequency of explants with the regenerated shoots. Data are mean±SD of three independent experiments. Bars show mean±SD. ***P<0.001, **P<0.01, *P<0.05 (Student's t-test).
Soybean explants were cultured on medium containing indicated concentrations of REF1. Shoot regeneration was scored 21 days after incubation.

recalcitrant soybean = test: Regeneration frequency / transformation efficiency of recalcitrant soybean; assay type: cell-based; details: 100 nM GmREF1 vs control in absence of GmREF1
Method: (a) photos of control recalcitrant soybean and PRR+RER overexpressing (OE) recalcitrant soybean grown in the presence of 50 nM gmREF1, 100 nM GmREF1 or a vehicle only control (mock). (b) relative regeneration frequency of control recalcitrant soybean and PRR+RER overexpressing (OE) recalcitrant soybean grown in the presence of 50 nM GmREF1, 100 nM GmREF1 or a absence of REF1 (mock).

[3] = 100 nM GmREF1, three experiments

**Q.** How did the shoot regenerative capacity (cucumber leaf explants) turn out when “YKLEGELQKRFEDLLKTTTDNDIPRGGNY (listed as Cucumis sativus) [CsREF1]” was run?
**A.** significantly increased

**Q.** For “TGRRRGRPPSRPGVGRGPPPENN (listed as Capsicum annuum) [CaREF1]”, which callus formation [1] is on record?
**A.** increased; also recorded: promotes callus formation

**Q.** What about the root hair formation (pepper roots) of the same sequence?
**A.** promotes root hair formation

**Q.** Which “Regenerated shoots carrying the reporter gene” value [2, 3] does the source give for “GSVVVLQTKRKHDGGKGRDPQTN (Glycine max) [GmREF1]” here?
**A.** 177 and 156 and 200

**Q.** And the “Transformation efficiency (%)” value [2, 3]?
**A.** 64.1% and 73.9% and 72.9%

**Q.** And the transformation efficiency ([2]; 100 nM GmREF1 vs control)?
**A.** improves transformation efficiency; also recorded: greater

**Q.** And the “relative regeneration frequency, increase” value (soybean explants; 10 nM GmREF1 vs absence)?
**A.** ~ 2.1 fold

**Q.** And the “relative regeneration frequency, increase” value (soybean explants; 20 nM GmREF1 vs absence)?
**A.** ~ 2.8 fold

**Q.** What about the “relative regeneration frequency, increase” value (soybean explants; 50 nM GmREF1 vs absence) of the same sequence?
**A.** ~ 3.8 fold

**Q.** And the “shoot regeneration / regenerative capacity” value (soybean explants; presence vs absence of GmREF1)?
**A.** increases the regenerative capacity; also recorded: promotes shoot regeneration

**Q.** And the “regeneration frequency, increase” value (recalcitrant soybean)?
**A.** ~ 12 fold
